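Step 1: Grow cells in 96-well plates. Step 2: Expose to compound for 48 hours at 5 concentrations. Step 3: Interpolate endpoints linearly; if unreached, use highest concentration. The concentration for 50% growth inhibition is given as GI50.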 Calls of active or inactive are those of the source. Cut-off read from the data, not from the text of the source: active = GI50 up to about 1.1 µM and inactive = higher.
Legend:
Assay in all cases: growth of human tumour cells (NCI), 48 h
NCI/ADR-RES = system: NCI/ADR-RES
SF-539 = system: SF-539
TK-10 = system: TK-10
SK-OV-3 = system: SK-OV-3
ACHN = system: ACHN
OVCAR-4 = system: OVCAR-4
Hs-578T = system: Hs-578T
HCC 2998 = system: HCC 2998
HOP-92 = system: HOP-92
HT-29 = system: HT-29
CCRF-CEM = system: CCRF-CEM
SNB-19 = system: SNB-19
LOX IMVI = system: LOX IMVI
OVCAR-8 = system: OVCAR-8
M14 = system: M14
U-251 = system: U-251
786-0 = system: 786-0
SF-268 = system: SF-268
SK-MEL-5 = system: SK-MEL-5
K562 = system: K562
NCI-H460 = system: NCI-H460
Malme-3M = system: Malme-3M
HCT-15 = system: HCT-15
UACC-257 = system: UACC-257
COLO 205 = system: COLO 205
HOP-62 = system: HOP-62
CAKI-1 = system: CAKI-1
MOLT-4 = system: MOLT-4
EKVX = system: EKVX
OVCAR-3 = system: OVCAR-3
HL-60 = system: HL-60
NCI-H522 = system: NCI-H522
SR = system: SR
SW-620 = system: SW-620
IGROV-1 = system: IGROV-1
SNB-75 = system: SNB-75
NCI-H23 = system: NCI-H23
A498 = system: A498
PC-3 = system: PC-3
DU-145 = system: DU-145
SF-295 = system: SF-295
SK-MEL-28 = system: SK-MEL-28
MDA-MB-435 = system: MDA-MB-435
MCF7 = system: MCF7
RXF 393 = system: RXF 393
BT-549 = system: BT-549
MDA-MB-231 = system: MDA-MB-231
HCT-116 = system: HCT-116
MDA-N = system: MDA-N
A549 = system: A549
UO-31 = system: UO-31
UACC-62 = system: UACC-62
NCI-H226 = system: NCI-H226
RPMI-8226 = system: RPMI-8226
SK-MEL-2 = system: SK-MEL-2
SN12C = system: SN12C
KM12 = system: KM12
OVCAR-5 = system: OVCAR-5

Compound: CCOC(=O)NC(OC)(C(F)(F)F)C(F)(F)F
- GI50 (NCI/ADR-RES): > 100 µM (inactive)
- GI50 (SF-539): > 100 µM (inactive)
- GI50 (TK-10): > 100 µM (inactive)
- GI50 (SK-OV-3): 46.9 µM (inactive)
- GI50 (ACHN): > 100 µM (inactive)
- GI50 (OVCAR-4): > 100 µM (inactive)
- GI50 (Hs-578T): > 100 µM (inactive)
- GI50 (HCC 2998): > 100 µM (inactive)
- GI50 (HOP-92): > 100 µM (inactive)
- GI50 (HT-29): > 100 µM (inactive)
- GI50 (CCRF-CEM): > 100 µM (inactive)
- GI50 (SNB-19): > 100 µM (inactive)
- GI50 (LOX IMVI): > 100 µM (inactive)
- GI50 (OVCAR-8): > 100 µM (inactive)
- GI50 (M14): > 100 µM (inactive)
- GI50 (U-251): > 100 µM (inactive)
- GI50 (786-0): > 100 µM (inactive)
- GI50 (SF-268): > 100 µM (inactive)
- GI50 (SK-MEL-5): > 100 µM (inactive)
- GI50 (K562): > 100 µM (inactive)
- GI50 (NCI-H460): > 100 µM (inactive)
- GI50 (Malme-3M): > 100 µM (inactive)
- GI50 (HCT-15): > 100 µM
- GI50 (UACC-257): > 100 µM (inactive)
- GI50 (COLO 205): > 100 µM (inactive)
- GI50 (HOP-62): > 100 µM (inactive)
- GI50 (CAKI-1): > 100 µM (inactive)
- GI50 (MOLT-4): > 100 µM (inactive)
- GI50 (EKVX): > 100 µM (inactive)
- GI50 (OVCAR-3): > 100 µM (inactive)
- GI50 (HL-60): > 100 µM (inactive)
- GI50 (NCI-H522): > 100 µM (inactive)
- GI50 (SR): > 100 µM (inactive)
- GI50 (SW-620): > 100 µM (inactive)
- GI50 (IGROV-1): > 100 µM (inactive)
- GI50 (SNB-75): > 100 µM (inactive)
- GI50 (NCI-H23): > 100 µM (inactive)
- GI50 (A498): > 100 µM (inactive)
- GI50 (PC-3): > 100 µM (inactive)
- GI50 (DU-145): > 100 µM (inactive)
- GI50 (SF-295): > 100 µM (inactive)
- GI50 (SK-MEL-28): > 100 µM (inactive)
- GI50 (MDA-MB-435): > 100 µM (inactive)
- GI50 (MCF7): > 100 µM (inactive)
- GI50 (RXF 393): > 100 µM (inactive)
- GI50 (BT-549): > 100 µM (inactive)
- GI50 (MDA-MB-231): > 100 µM (inactive)
- GI50 (HCT-116): > 100 µM (inactive)
- GI50 (MDA-N): > 100 µM (inactive)
- GI50 (A549): > 100 µM (inactive)
- GI50 (UO-31): > 100 µM (inactive)
- GI50 (UACC-62): > 100 µM (inactive)
- GI50 (NCI-H226): > 100 µM (inactive)
- GI50 (RPMI-8226): > 100 µM (inactive)

Compound: O=[N+]([O-])c1ccc2c(/N=N/c3c(O)ccc4ccccc34)c(O)cc(S(=O)(=O)O)c2c1
- GI50 (NCI/ADR-RES): 6.92 µM (inactive)
- GI50 (SF-539): 16.5 µM (inactive)
- GI50 (TK-10): 37.1 µM (inactive)
- GI50 (SK-OV-3): 36.4 µM (inactive)
- GI50 (ACHN): 4.86 µM (inactive)
- GI50 (OVCAR-4): 35.2 µM (inactive)
- GI50 (Hs-578T): > 50 µM (inactive)
- GI50 (HCC 2998): 63.1 µM (inactive)
- GI50 (HOP-92): 16.6 µM (inactive)
- GI50 (HT-29): 25.4 µM (inactive)
- GI50 (CCRF-CEM): 0.869 µM (active)
- GI50 (SNB-19): 15 µM (inactive)
- GI50 (LOX IMVI): 17.4 µM (inactive)
- GI50 (OVCAR-8): 5.28 µM (inactive)
- GI50 (M14): 4.07 µM (inactive)
- GI50 (U-251): 3.45 µM (inactive)
- GI50 (786-0): 11.7 µM (inactive)
- GI50 (SF-268): 7.31 µM (inactive)
- GI50 (SK-MEL-5): 11.2 µM (inactive)
- GI50 (K562): 9.16 µM (inactive)
- GI50 (NCI-H460): 44.4 µM (inactive)
- GI50 (Malme-3M): 4.06 µM (inactive)
- GI50 (HCT-15): 4.62 µM
- GI50 (SK-MEL-2): 14.2 µM (inactive)
- GI50 (UACC-257): 20 µM (inactive)
- GI50 (COLO 205): 18.3 µM (inactive)
- GI50 (HOP-62): 6.73 µM (inactive)
- GI50 (CAKI-1): 4.86 µM (inactive)
- GI50 (MOLT-4): 1.39 µM (inactive)
- GI50 (EKVX): > 50 µM (inactive)
- GI50 (OVCAR-3): 1.69 µM (inactive)
- GI50 (HL-60): 1.09 µM (active)
- GI50 (NCI-H522): 4.76 µM (inactive)
- GI50 (SR): 26.2 µM (inactive)
- GI50 (SW-620): 13.8 µM (inactive)
- GI50 (SN12C): 25.6 µM (inactive)
- GI50 (IGROV-1): 4.89 µM (inactive)
- GI50 (SNB-75): 21.9 µM (inactive)
- GI50 (NCI-H23): 20.9 µM (inactive)
- GI50 (PC-3): 6.98 µM (inactive)
- GI50 (KM12): 24.2 µM (inactive)
- GI50 (DU-145): 36.1 µM (inactive)
- GI50 (SF-295): 13.3 µM (inactive)
- GI50 (SK-MEL-28): 10.1 µM (inactive)
- GI50 (MDA-MB-435): 7.98 µM (inactive)
- GI50 (MCF7): 49.9 µM (inactive)
- GI50 (RXF 393): 14.8 µM (inactive)
- GI50 (BT-549): 26.9 µM (inactive)
- GI50 (MDA-MB-231): 18 µM (inactive)
- GI50 (HCT-116): 14.4 µM (inactive)
- GI50 (MDA-N): 15.5 µM (inactive)
- GI50 (OVCAR-5): 8.34 µM (inactive)
- GI50 (A549): 15.4 µM (inactive)
- GI50 (UO-31): 2.45 µM (inactive)
- GI50 (UACC-62): 2.51 µM (inactive)
- GI50 (NCI-H226): 17.5 µM (inactive)
- GI50 (RPMI-8226): 8.26 µM (inactive)

Compound: O=C1CCCC2=C1C(c1ccc3c(c1)OCO3)Nc1ccc3ccccc3c12 (stereo unspecified)
- GI50 (NCI/ADR-RES): 55.1 µM (inactive)
- GI50 (SF-539): > 100 µM (inactive)
- GI50 (TK-10): > 100 µM (inactive)
- GI50 (SK-OV-3): > 100 µM (inactive)
- GI50 (ACHN): 16 µM (inactive)
- GI50 (Hs-578T): 41.3 µM (inactive)
- GI50 (HCC 2998): > 100 µM (inactive)
- GI50 (HT-29): > 100 µM (inactive)
- GI50 (CCRF-CEM): > 100 µM (inactive)
- GI50 (SNB-19): > 100 µM (inactive)
- GI50 (OVCAR-8): 87.5 µM (inactive)
- GI50 (M14): > 100 µM (inactive)
- GI50 (U-251): > 100 µM (inactive)
- GI50 (786-0): > 100 µM (inactive)
- GI50 (SF-268): > 100 µM (inactive)
- GI50 (SK-MEL-5): 93.5 µM (inactive)
- GI50 (NCI-H460): > 100 µM (inactive)
- GI50 (Malme-3M): > 100 µM (inactive)
- GI50 (HCT-15): > 100 µM
- GI50 (SK-MEL-2): > 100 µM (inactive)
- GI50 (UACC-257): > 100 µM (inactive)
- GI50 (COLO 205): > 100 µM (inactive)
- GI50 (HOP-62): > 100 µM (inactive)
- GI50 (CAKI-1): > 100 µM (inactive)
- GI50 (EKVX): 36.9 µM (inactive)
- GI50 (OVCAR-3): > 100 µM (inactive)
- GI50 (NCI-H522): > 100 µM (inactive)
- GI50 (SW-620): > 100 µM (inactive)
- GI50 (SN12C): > 100 µM (inactive)
- GI50 (IGROV-1): > 100 µM (inactive)
- GI50 (SNB-75): > 100 µM (inactive)
- GI50 (NCI-H23): > 100 µM (inactive)
- GI50 (A498): > 100 µM (inactive)
- GI50 (KM12): > 100 µM (inactive)
- GI50 (DU-145): > 100 µM (inactive)
- GI50 (SF-295): > 100 µM (inactive)
- GI50 (SK-MEL-28): > 100 µM (inactive)
- GI50 (MDA-MB-435): > 100 µM (inactive)
- GI50 (MCF7): > 100 µM (inactive)
- GI50 (RXF 393): > 100 µM (inactive)
- GI50 (BT-549): > 100 µM (inactive)
- GI50 (MDA-MB-231): > 100 µM (inactive)
- GI50 (HCT-116): > 100 µM (inactive)
- GI50 (MDA-N): 87.1 µM (inactive)
- GI50 (OVCAR-5): > 100 µM (inactive)
- GI50 (A549): > 100 µM (inactive)
- GI50 (UO-31): > 100 µM (inactive)
- GI50 (UACC-62): > 100 µM (inactive)
- GI50 (NCI-H226): > 100 µM (inactive)
- GI50 (RPMI-8226): > 100 µM (inactive)
